Source: patent US8541407B2 (ArQule, Inc., priority 2010, dated 2013)

Molecular target: AKT1 (Homo sapiens (Human), UniProt P31749)
Assay: Inactive Akt Alpha Screen Assay
Details: non *labeled: Akt Alpha Screen assay; read-out: AKT1 biochemical assay, IC50
Method in brief: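 AKT1 activated in situ by PDK1, MAPKAPK2, lipid vesicles and ATP, then phosphorylating biotinylated crosstide for 30 min at room temperature. Stopped with 10 mM EDTA; phosphopeptide detected by AlphaScreen using phospho-AKT substrate antibody (1:350), Protein A acceptor and streptavidin donor beads, 90 min dark, ex 640/em 570 nm.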

AKT1, sequence (P31749 whole entry): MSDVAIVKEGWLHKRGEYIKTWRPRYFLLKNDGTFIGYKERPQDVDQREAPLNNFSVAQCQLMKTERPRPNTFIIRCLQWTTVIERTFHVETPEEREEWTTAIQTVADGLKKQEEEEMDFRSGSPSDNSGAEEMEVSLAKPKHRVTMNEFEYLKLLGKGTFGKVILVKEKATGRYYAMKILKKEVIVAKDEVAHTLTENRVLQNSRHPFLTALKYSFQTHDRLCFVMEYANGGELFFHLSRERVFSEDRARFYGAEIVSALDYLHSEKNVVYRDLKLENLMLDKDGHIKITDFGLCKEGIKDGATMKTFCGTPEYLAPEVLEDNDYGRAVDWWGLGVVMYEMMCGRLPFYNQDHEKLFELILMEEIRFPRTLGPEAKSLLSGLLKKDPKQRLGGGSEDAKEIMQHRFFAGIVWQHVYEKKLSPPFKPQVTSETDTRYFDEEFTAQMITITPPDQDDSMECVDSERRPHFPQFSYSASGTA

Row | SMILES | IC50
1 | O=C(NCCc1ccc(Cl)cc1)NC1CCN(Cc2ccc(-c3nnc4n3-c3cccnc3Nc3ccccc3-4)cc2)CC1 [Example 180, 1-(1-(4-(9H-benzo[f]pyrido[2,3-b][1,2,4]triazolo[4,3-d][1,4]diazepin-3-yl)benzyl)piperidin-4-yl)-3-(4-chlorophenethyl)urea] | 940 nM
2 | Cc1ccccc1CNC(=O)NC1CCN(Cc2ccc(-c3nnc4n3-c3cccnc3Nc3ccccc3-4)cc2)CC1 [Example 181, 1-(1-(4-(9H-benzo[f]pyrido[2,3-b][1,2,4]triazolo[4,3-d][1,4]diazepin-3-yl)benzyl)piperidin-4-yl)-3-(2-methylbenzyl)urea] | 1200 nM
3 | COc1ccccc1NC(=O)NC1CCN(Cc2ccc(-c3nnc4n3-c3cccnc3Nc3ccccc3-4)cc2)CC1 [Example 183, 1-(1-(4-(9H-benzo[f]pyrido[2,3-b][1,2,4]triazolo[4,3-d][1,4]diazepin-3-yl)benzyl)piperidin-4-yl)-3-(2-methoxyphenyl)urea] | 700 nM
4 | COc1ccc(NC(=O)NC2CCN(Cc3ccc(-c4nnc5n4-c4cccnc4Nc4ccccc4-5)cc3)CC2)c(C)c1 [Example 184, 1-(1-(4-(9H-benzo[f]pyrido[2,3-b][1,2,4]triazolo[4,3-d][1,4]diazepin-3-yl)benzyl)piperidin-4-yl)-3-(4-methoxy-2-methylphenyl)urea] | 840 nM
5 | Cc1cc(COCc2ccc(-c3nnc4n3-c3cccnc3Nc3ccccc3-4)cc2)no1 [Example 185, 3-(((4-(9H-benzo[f]pyrido[2,3-b][1,2,4]triazolo[4,3-d][1,4]diazepin-3-yl)benzyl)oxy)methyl)-5-methylisoxazole] | 2100 nM
6 | c1ccc(OC2CCN(Cc3ccc(-c4nnc5n4-c4cccnc4Nc4ccccc4-5)cc3)CC2)cc1 [Example 188, 3-(4-((4-phenoxypiperidin-1-yl)methyl)phenyl)-9H-benzo[f]pyrido[2,3-b][1,2,4]triazolo[4,3-d][1,4]diazepine] | 830 nM
7 | c1ccc(OC2CCCN(Cc3ccc(-c4nnc5n4-c4cccnc4Nc4ccccc4-5)cc3)C2)cc1 (stereo not drawn) [Example 189, 3-(4-((3-phenoxypiperidin-1-yl)methyl)phenyl)-9H-benzo[f]pyrido[2,3-b][1,2,4]triazolo[4,3-d][1,4]diazepine] | 920 nM
8 | Cc1noc(C2CCCN(Cc3ccc(-c4nnc5n4-c4cccnc4Nc4ccccc4-5)cc3)C2)n1 (stereo not drawn) [Example 190, 5-(1-(4-(9H-benzo[f]pyrido[2,3-b][1,2,4]triazolo[4,3-d][1,4]diazepin-3-yl)benzyl)piperidin-3-yl)-3-methyl-1,2,4-oxadiazole] | 410 nM
9 | O=c1[nH]c(-c2ccccc2)cn1C1CCN(Cc2ccc(-c3nnc4n3-c3cccnc3Nc3ccccc3-4)cc2)CC1 [Example 191, 1-(1-(4-(9H-benzo[f]pyrido[2,3-b][1,2,4]triazolo[4,3-d][1,4]diazepin-3-yl)benzyl)piperidin-4-yl)-4-phenyl-1H-imidazol-2(3H)-one] | 48 nM
10 | CC(C)(N)c1ccc(-c2nnc3n2-c2cccnc2Nc2ccccc2-3)cc1 [Example 192, 2-(4-(9H-benzo[f]pyrido[2,3-b][1,2,4]triazolo[4,3-d][1,4]diazepin-3-yl)phenyl)propan-2-amine] | 340 nM
11 | O=C(Nc1ccccc1)NC1(c2ccc(-c3nnc4n3-c3cccnc3Nc3ccccc3-4)cc2)CCC1 [Example 194, 1-(1-(4-(9H-benzo[f]pyrido[2,3-b][1,2,4]triazolo[4,3-d][1,4]diazepin-3-yl)phenyl)cyclobutyl)-3-phenylurea] | 1200 nM
12 | c1ccc2c(c1)Nc1ncccc1-n1c(-c3ccc(C4CCCN4)cc3)nnc1-2 (stereo not drawn) [Example 196, 3-(4-(pyrrolidin-2-yl)phenyl)-9H-benzo[f]pyrido[2,3-b][1,2,4]triazolo[4,3-d][1,4]diazepine] | 1100 nM
13 | O=S(=O)(NC1(c2ccc(-c3nnc4n3-c3cccnc3Nc3ccccc3-4)cc2)CCC1)c1ccc(F)cc1 [Example 197, N-(1-(4-(9H-benzo[f]pyrido[2,3-b][1,2,4]triazolo[4,3-d][1,4]diazepin-3-yl)phenyl)cyclobutyl)-4-fluorobenzenesulfonamide] | 580 nM
14 | Cc1cccc(S(=O)(=O)NC2(c3ccc(-c4nnc5n4-c4cccnc4Nc4ccccc4-5)cc3)CCC2)c1 [Example 199, N-(1-(4-(9H-benzo[f]pyrido[2,3-b][1,2,4]triazolo[4,3-d][1,4]diazepin-3-yl)phenyl)cyclobutyl)-3-methylbenzenesulfonamide] | 460 nM
15 | O=C(NC1(c2ccc(-c3nnc4n3-c3cccnc3Nc3ccccc3-4)cc2)CCC1)c1ccc(F)cc1 [Example 200, N-(1-(4-(9H-benzo[f]pyrido[2,3-b][1,2,4]triazolo[4,3-d][1,4]diazepin-3-yl)phenyl)cyclobutyl)-4-fluorobenzamide] | 610 nM
16 | CC(C)(C)OC(=O)NC1CCN(Cc2ccc(-c3nnc4n3-c3cccnc3Nc3ccccc3-4)cc2)CC1 [Example 201, tert-butyl (1-(4-(9H-benzo[f]pyrido[2,3-b][1,2,4]triazolo[4,3-d][1,4]diazepin-3-yl)benzyl)piperidin-4-yl)carbamate] | 1900 nM
17 | O=S(=O)(NC1(c2ccc(-c3nnc4n3-c3cccnc3Nc3ccccc3-4)cc2)CCC1)c1cccc(F)c1 [Example 204, N-(1-(4-(9H-benzo[f]pyrido[2,3-b][1,2,4]triazolo[4,3-d][1,4]diazepin-3-yl)phenyl)cyclobutyl)-3-fluorobenzenesulfonamide] | 760 nM

Row | SMILES | IC50
18 | Cn1ccc(S(=O)(=O)NC2(c3ccc(-c4nnc5n4-c4cccnc4Nc4ccccc4-5)cc3)CCC2)n1 [Example 205, N-(1-(4-(9H-benzo[f]pyrido[2,3-b][1,2,4]triazolo[4,3-d][1,4]diazepin-3-yl)phenyl)cyclobutyl)-1-methyl-1H-pyrazole-3-sulfonamide] | 640 nM
19 | Cc1cc(C(=O)NC2(c3ccc(-c4nnc5n4-c4cccnc4Nc4ccccc4-5)cc3)CCC2)no1 [Example 206, N-(1-(4-(9H-benzo[f]pyrido[2,3-b][1,2,4]triazolo[4,3-d][1,4]diazepin-3-yl)phenyl)cyclobutyl)-5-methylisoxazole-3-carboxamide] | 240 nM
20 | c1ccc(-c2nnc(C3CCN(Cc4ccc(-c5nnc6n5-c5cccnc5Nc5ccccc5-6)cc4)CC3)o2)cc1 [Example 207, 2-(1-(4-(9H-benzo[f]pyrido[2,3-b][1,2,4]triazolo[4,3-d][1,4]diazepin-3-yl)benzyl)piperidin-4-yl)-5-phenyl-1,3,4-oxadiazole] | 660 nM
21 | Cc1ccc2c(c1)-c1nnc(-c3ccc(C4(N)CCC4)cc3)n1-c1cccnc1N2 [Example 216, 1-(4-(12-methyl-9H-benzo[f]pyrido[2,3-b][1,2,4]triazolo[4,3-d][1,4]diazepin-3-yl)phenyl)cyclobutanamine] | 960 nM
22 | NC1(c2ccc(-c3nnc4n3-c3cccnc3Nc3ccccc3-4)cc2)CCCCC1 [Example 217, 1-(4-(9H-benzo[f]pyrido[2,3-b][1,2,4]triazolo[4,3-d][1,4]diazepin-3-yl)phenyl)cyclohexanamine] | 500 nM
23 | Cc1cccc2c1Nc1ncccc1-n1c(-c3ccc(C4(N)CCC4)cc3)nnc1-2 [Example 218, 1-(4-(10-methyl-9H-benzo[f]pyrido[2,3-b][1,2,4]triazolo[4,3-d][1,4]diazepin-3-yl)phenyl)cyclobutanamine] | 1400 nM
24 | NC1(c2ccc(-c3nnc4n3-c3cnccc3Nc3ccccc3-4)cc2)CCC1 [Example 220, 1-(4-(9H-benzo[f]pyrido[4,3-b][1,2,4]triazolo[4,3-d][1,4]diazepin-3-yl)phenyl)cyclobutanamine] | 5000 nM
25 | CC(C)(C)OC(=O)NC1(c2ccc(-c3nnc4n3-c3cccnc3Nc3ccccc3-4)cc2)CC1 [Example 221, tert-butyl (1-(4-(9H-benzo[f]pyrido[2,3-b][1,2,4]triazolo[4,3-d][1,4]diazepin-3-yl)phenyl)cyclopropyl)carbamate] | 1400 nM
26 | NC1(c2ccc(-c3nnc4n3-c3cccnc3Nc3ccccc3-4)cc2)CC1 [Example 222, 1-(4-(9H-benzo[f]pyrido[2,3-b][1,2,4]triazolo[4,3-d][1,4]diazepin-3-yl)phenyl)cyclopropanamine] | 140 nM
27 | Cc1ccc2c(c1)Nc1ncccc1-n1c(-c3ccc(C4(N)CCC4)cc3)nnc1-2 [Example 223, 1-(4-(11-methyl-9H-benzo[f]pyrido[2,3-b][1,2,4]triazolo[4,3-d][1,4]diazepin-3-yl)phenyl)cyclobutanamine] | 490 nM
28 | NC1(c2ccc(-c3nnc4n3-c3cccnc3Nc3ccc(-c5ccccc5)cc3-4)cc2)CCC1 [Example 224, 1-(4-(12-phenyl-9H-benzo[f]pyrido[2,3-b][1,2,4]triazolo[4,3-d][1,4]diazepin-3-yl)phenyl)cyclobutanamine] | 1200 nM
29 | OCc1ccc(-c2nnc3n2-c2cccnc2Nc2ccc(Br)cc2-3)cc1 [Example 225, (4-(12-bromo-9H-benzo[f]pyrido[2,3-b][1,2,4]triazolo[4,3-d][1,4]diazepin-3-yl)phenyl)methanol] | 5200 nM
30 | O=C(NC1(c2ccc(-c3nnc4n3-c3ccc(Cl)nc3Nc3ccccc3-4)cc2)CCC1)C(F)(F)F [Example 226, N-(1-(4-(7-chloro-9H-benzo[f]pyrido[2,3-b][1,2,4]triazolo[4,3-d][1,4]diazepin-3-yl)phenyl)cyclobutyl)-2,2,2-trifluoroacetamide] | 9300 nM
31 | NCc1ccc(-c2nnc3n2-c2cccnc2Nc2ccc(Br)cc2-3)cc1 [Example 227, (4-(12-bromo-9H-benzo[f]pyrido[2,3-b][1,2,4]triazolo[4,3-d][1,4]diazepin-3-yl)phenyl)methanamine] | 6100 nM
32 | c1ccc(CCNC2(c3ccc(-c4nnc5n4-c4cccnc4Nc4ccccc4-5)cc3)CCC2)cc1 [Example 229, 1-(4-(9H-benzo[f]pyrido[2,3-b][1,2,4]triazolo[4,3-d][1,4]diazepin-3-yl)phenyl)-N-phenethylcyclobutanamine] | 3800 nM
33 | NC1(c2ccc(-c3nnc4n3-c3cc(-c5ccccc5)cnc3Nc3ccccc3-4)cc2)CCC1 [Example 230, 1-(4-(6-phenyl-9H-benzo[f]pyrido[2,3-b][1,2,4]triazolo[4,3-d][1,4]diazepin-3-yl)phenyl)cyclobutanamine] | 2600 nM
